In ChEMBL document CHEMBL1130123, “Optimization of 3-(1H-indazol-3-ylmethyl)-1,5-benzodiazepines as potent, orally active CCK-A agonists” (J Med Chem, 1997):

Key:
[1] = Total body clearance at an intravenous dose of 5.2 mg/kg in rat; assay type: ADME, organism-based; set-up: dose 5.2 mg/kg, route intravenous; conditions: in vivo
[2] = Maximum concentration at an intraduodenal dose of 5.2 mg/kg in rat; assay type: ADME, organism-based; set-up: dose 5.2 mg/kg, route intraduodenal; conditions: in vivo
[3] = Oral bioavailability in Long-Evans rats at an intraduodenal dose of 5.2 mg/kg; assay type: ADME, organism-based; conditions: rat, in vivo, other: intraduodenal
[4] = Oral bioavailability in Long-Evans rats at an intravenous dose of 5.2 mg/kg; Not active; assay type: ADME, organism-based; conditions: rat, in vivo
[5] = Half life period at an intravenous dose of 5.2 mg/kg in rat; assay type: ADME, organism-based; set-up: dose 5.2 mg/kg, route intravenous; conditions: in vivo
[6] = Volume of distribution at steady state at an intravenous dose of 5.2 mg/kg in rat; assay type: ADME, organism-based; set-up: dose 5.2 mg/kg, route intravenous; conditions: in vivo, read-out: Vss
Mus musculus = experiment: Maximal response at 1 nmol/kg peroral dose; assay type: functional
[7] = Maximum concentration at an intravenous dose of 5.2 mg/kg; assay type: ADME, organism-based; set-up: dose 5.2 mg/kg, route intravenous; conditions: rat, in vivo

For COc1ccc(N(C(=O)CN2C(=O)C(C)(Cc3n[nH]c4ccccc34)C(=O)N(c3ccccc3)c3ccccc32)C(C)C)cc1 (stereo not drawn), the clearance [1] was 30 mL/min/kg, the Cmax [2] was 30 ng/mL and the bioavailability [3] was 15%. The F [4] was “Not Active”, the half-life [5] was 3.9 h and the Vd [6] was 4.31 L/kg. It also gave a Max (Mus musculus) of 28% and a Cmax [7] of 3390 ng/mL.
